Experimental data reported in US6100280A, “Narcotic antagonist” (Pola Chemical Industries, Inc., priority 1995, dated 2000).

target: T1, narcotic receptors (cocaine derivative [^3 H]WIN35,428 binding, striatum) (Rattus norvegicus, UniProt P23977); assay: Ex vivo binding inhibition assay ([^3 H]WIN35,428, striatum after intraperitoneal administration); type: in vivo, male Wistar rats; settings: 30 mg/kg intraperitoneally, 30 minutes after administration, [^3 H]WIN35,428 0.5 nM; control (saline) 0%
T1 construct: from tissue; host or cells: striatum of male Wistar rats, crude membranes
T1 sequence (P23977 whole entry): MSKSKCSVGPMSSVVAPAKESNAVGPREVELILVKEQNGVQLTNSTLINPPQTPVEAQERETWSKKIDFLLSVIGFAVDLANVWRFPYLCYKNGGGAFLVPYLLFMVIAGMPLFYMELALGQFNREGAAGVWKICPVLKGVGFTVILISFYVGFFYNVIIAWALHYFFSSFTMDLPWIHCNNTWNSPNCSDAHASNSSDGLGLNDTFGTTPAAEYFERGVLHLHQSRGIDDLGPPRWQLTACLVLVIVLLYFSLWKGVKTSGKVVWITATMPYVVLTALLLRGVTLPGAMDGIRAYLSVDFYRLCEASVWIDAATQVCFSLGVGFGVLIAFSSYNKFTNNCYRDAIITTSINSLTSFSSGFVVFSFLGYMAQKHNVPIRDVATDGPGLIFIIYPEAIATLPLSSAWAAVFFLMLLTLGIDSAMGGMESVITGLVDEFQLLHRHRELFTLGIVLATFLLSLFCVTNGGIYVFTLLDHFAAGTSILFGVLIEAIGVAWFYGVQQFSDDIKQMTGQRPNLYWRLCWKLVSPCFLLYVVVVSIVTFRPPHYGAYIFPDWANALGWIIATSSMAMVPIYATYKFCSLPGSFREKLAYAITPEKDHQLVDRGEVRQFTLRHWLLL
Experimental: Ex vivo binding inhibition assay
(§1) To each male Wistar rat, 30 mg/kg of compound 15 was intraperitoneally administered. Thirty minutes after administration, rats were decapitated. From each rat, striatum was immediately removed, and its wet weight was measured. The tissue of striatum was homogenized using a polytron together with a 10-fold amount of 50 mM Tris-HCl buffer (pH 7.4) while being cooled on ice. The homogenate was centrifugally separated (20,000 G, 20 minutes, 4° C.), and the resulting pellet was suspended in a mixture of a 20-fold amount (based on the original tissue weight) of 50 mM Tris-HCl and 100 mM NaCl buffer (pH 7.4).
The contents were allowed to react for 2 hours on ice (0-4° C.). Reaction was terminated by passing the contents through a glass filter (GF/B, product of Whatman) which had been immersed in 0.1% BSA solution for at least 40 minutes in advance while aspiration was carried out using a cell harvester, followed by washing three times with 5 ml of 50 mM Tris HCl buffer (pH 7.4). The filter and 10 ml of aquazol 2 (product of NEN) were placed in a vial and allowed to stand overnight. Radioactivity was measured using a liquid scintillation counter. […] Specific binding amounts were determined by subtracting the nonspecific binding amounts from the total binding amounts. Control accounts for the sole use of a saline solution administered to rats intraperitoneally. […]

`OC(CNc1ccccc1)CN1CCN(CCCC(c2ccc(F)cc2)c2ccc(F)cc2)CC1` (single isomer, unassigned) [Compound 15, (--)-1-[4,4-bis(4-fluorophenyl)butyl]-4-(2-hydroxy-3-phenylaminopropyl)-piperazine.2HCl] showed a binding inhibitory ratio of 86.1%.

target: T2, (cocaine derivative [^3 H]WIN35,428 binding, striatum) (Rattus norvegicus, UniProt P23977); assay: In vitro binding inhibition assay against a cocaine derivative ([^3 H]WIN35,428), striatum crude membrane; design: species or system male Wistar rats; settings: [^3 H]WIN35,428 0.5 nM, 2 hours on ice (0-4° C.), pH 7.4, Hill plotting, read-out: 50% Inhibition concentration
T2 construct: from tissue; host or cells: striatum of male Wistar rats, crude membranes
T2 sequence (P23977 whole entry): as above
Experimental: as §1, with “Male” for “To each male”, “Wistar” for “Wistar rat, 30 mg/kg of compound 15 was intraperitoneally administered. Thirty minutes after administration,”, “(38,700” for “(20,000”, “40-fold” for “20-fold”
The contents were allowed to react for 2 hours on ice (0-4° C.). Reaction was terminated by passing the contents through a glass filter (GF/B, product of Whatman) which had been immersed in 0.1% BSA solution for at least 40 minutes in advance while aspiration was carried out using a cell harvester, followed by washing three times with 5 ml of 50 mM Tris HCl buffer (pH 7.4). The filter and 10 ml of aquazol 2 (product of NEN) were placed in a vial and allowed to stand overnight. Radioactivity was measured using a liquid scintillation counter. […] Specific binding amounts were determined by subtracting the nonspecific binding amounts from the total binding amounts. Fifty(50)% inhibition concentrations were calculated using Hill plotting.

In order of falling IC50:
1. Nc1ccc(NCC(O)CN2CCN(CCCC(c3ccc(F)cc3)c3ccc(F)cc3)CC2)cc1 (stereo not shown) [Compound 23, 1-[3-(4-aminophenylamino)-2-hydroxypropyl]-4-[4,4-bis(4-fluorophenyl)butyl]-piperazine.3C4H4O4]  534 nM
2. CC(C)(C)c1cc(NCC(O)CN2CCN(CCCC(c3ccc(F)cc3)c3ccc(F)cc3)CC2)cc(C(C)(C)C)c1O (stereo not shown) [Compound 22, 1-[4,4-bis(4-flurophenyl)-butyl]-4-[3-(3,5-di-tert-butyl-4-hydroxyphenylamino)-2-hydroxypropyl]piperazine..3C4H4O4]  306 nM
3. COc1cc(NCC(O)CN2CCN(CCCC(c3ccc(F)cc3)c3ccc(F)cc3)CC2)cc(OC)c1OC (stereo not shown) [Compound 11, 1-[4,4-bis(4-fluorophenyl)-butyl]-4-[2-hydroxy-3-(3,4,5-trimethoxyphenylamino)-propyl]piperazine.2C4H4O4]  197 nM
4. COC(=O)[C@H]1[C@@H](c2ccccc2)C[C@@H]2CC[C@H]1N2C [WIN35,065-2, reference compound]  118 nM
5. COc1ccc(NCC(O)CN2CCN(CCCC(c3ccc(F)cc3)c3ccc(F)cc3)CC2)cc1 (stereo not shown) [Compound 13, 1-[4,4-bis(4-fluorophenyl)-butyl]-4-[2-hydroxy-3-(4-methoxyphenylamino)propyl]-piperazine.2HCl]  105 nM
6. OC(CNc1ccccc1)CN1CCN(CC(c2ccccc2)c2ccccc2)CC1 (stereo not shown) [Compound 19, 1-[2,2-diphenylethyl)-4-(2-hydroxy-3-phenylamino-propyl)piperazine.2HCl]  72.2 nM
7. O=[N+]([O-])c1ccc(NCC(O)CN2CCN(CCCC(c3ccc(F)cc3)c3ccc(F)cc3)CC2)cc1 (stereo not shown) [Compound 20, 1-[4,4-bis(4-fluorophenyl)butyl]-4-[2-hydroxy-3-(4-nitrophenylamino)propyl]-piperazine.2HCl]  55.8 nM
8. OC(CNc1ccccc1)CN1CCN(CCCC(c2ccc(F)cc2)c2ccc(F)cc2)CC1 (single isomer, unassigned; (+)) [Compound 16, (+)-1-[4,4-bis(4-fluorophenyl)butyl)-4-(2-hydroxy-3-phenylaminopropyl)-piperazine.2HCl]  52.6 nM
9. OC(CNc1ccccc1)CN1CCN(C(c2ccc(F)cc2)c2ccc(F)cc2)CC1 (stereo not shown) [Compound 2, 1-[bis(4-fluorophenyl)-methyl]-4-[2-hydroxy-3-phenylaminopropyl)-piperazine.2HCl]  51.6 nM
10. CC(=O)N(CC(O)CN1CCN(CCCC(c2ccc(F)cc2)c2ccc(F)cc2)CC1)c1ccccc1 (stereo not shown) [Compound 4]  49.5 nM
11. OC(CNc1ccc(F)cc1)CN1CCN(CCCC(c2ccc(F)cc2)c2ccc(F)cc2)CC1 (stereo not shown) [Compound 9, 1-[4,4-bis(4-fluorophenyl)-butyl]-4-[3-(4-fluorophenylamino)-2-hydroxypropyl]-piperazine.2HCl]  46.8 nM
12. OC(CNc1ccncc1)CN1CCN(CCCC(c2ccc(F)cc2)c2ccc(F)cc2)CC1 (stereo not shown) [Compound 17, 1-[4,4-bis(4-fluorophenyl)-butyl)-4-[2-hydroxy-3-(4-pyridylamino)propyl]-piperazine.2C4H4O4]  45 nM
13. OC(CNc1ccccc1)CN1CCN(CCCC(c2ccc(F)cc2)c2ccc(F)cc2)CC1 (stereo not shown) [Compound 1, 1-[4,4-bis(4-fluorophenyl)-butyl]-4-(2-hydroxy-3-phenylaminopropyl)piperazine.2HCl]  44.8 nM
14. CC(=O)OC(CNc1ccccc1)CN1CCN(CCCC(c2ccc(F)cc2)c2ccc(F)cc2)CC1 (stereo not drawn) [Compound 7, l-(2-acetoxy-3-phenylamino-propyl)-4-[4,4-bis(4-fluorophenyl)butyl]piperazine.2C4H4O4]  41.2 nM
15. OC(CNc1ccccc1)CN1CCN(CCCCC(c2ccc(F)cc2)c2ccc(F)cc2)CC1 (stereo not shown) [Compound 21, 1-[5,5-bis(4-flurophenyl)-pentyl]-4-(2-hydroxy-3-phenylaminopropyl)piperazine.2HCl]  41.2 nM
16. OC(CNc1ccccc1)CN1CCN(CCCC(c2ccc(F)cc2)c2ccc(F)cc2)CC1 (single isomer, unassigned) [Compound 15, (--)-1-[4,4-bis(4-fluorophenyl)butyl]-4-(2-hydroxy-3-phenylaminopropyl)-piperazine.2HCl]  37.6 nM
17. CN(CC(O)CN1CCN(CCCC(c2ccc(F)cc2)c2ccc(F)cc2)CC1)c1ccccc1 (stereo not shown) [Compound 6, 1-[4,4-bis(4-fluorophenyl)-butyl]-4-[2-hydroxy-3-(N-methyl-N-phenylamino)-propyl]piperazine.2C4H4O4]  34.9 nM
18. OC(CNCc1ccccc1)CN1CCN(CCCC(c2ccc(F)cc2)c2ccc(F)cc2)CC1 (stereo not shown) [Compound 3, 1-[4,4-bis(4-fluorophenyl)-butyl]-4-(2-hydroxy-3-benzylaminopropyl)-piperazine.2HCl]  31.7 nM
19. Oc1ccc(NCC(O)CN2CCN(CCCC(c3ccc(F)cc3)c3ccc(F)cc3)CC2)cc1 (stereo not shown) [Compound 25, 1-[4,4-bis(4-flurophenyl)-butyl]-4-[2-hydroxy-3-(4-hydroxyphenylamino)propyl]-piperazine.2C4H4O4]  23.7 nM
20. COC(CNc1ccccc1)CN1CCN(CCCC(c2ccc(F)cc2)c2ccc(F)cc2)CC1 (stereo not shown) [Compound 8, 1-[4,4-bis(4-fluorophenyl)-butyl]-4-(2-methoxy-3-phenylaminopropyl)piperazine.2HCl]  23.7 nM
21. OC(CNc1ccccc1)CN1CCN(CCC(c2ccc(F)cc2)c2ccc(F)cc2)CC1 (stereo not shown) [Compound 18, 1-[3,3-bis(4-fluorophenyl)-propyl]-4-[2-hydroxy-3-phenylaminopropyl)piperazine]  15 nM
